{"source": "patent US20120316105A1", "about": "“Polymyxin Derivates Useful As Antibacterial Agents” (priority 2011, published 2012)", "key": {"[1]": {"test_system": "AB-1649, polymyxin-resistant clinical isolate of Acinetobacter baumannii", "format": "cell-based", "outline": "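MIC and MBC were measured by CLSI broth dilution methods (M7-A8, M100-S20, M26-A) against a polymyxin-resistant clinical isolate and reported in mg/L. Compounds were tested as trifluoroacetate salts, with one exception tested as the sulfate.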"}, "[2]": {"test_system": "AB-1649, polymyxin-resistant clinical isolate of Acinetobacter baumannii", "format": "cell-based", "outline": "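Broth dilution MIC per CLSI against the polymyxin-resistant A. baumannii isolate, 2-fold dilutions, overnight incubation, visual read of lowest concentration inhibiting growth. Run in duplicate, lower value reported when within 2-fold; MBC per CLSI M26-A guideline.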", "remark": "listed apart in the source"}, "[3]": {"test_system": "Pseudomonas aeruginosa strain PA01", "format": "cell-based", "outline": "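CLSI broth dilution against P. aeruginosa PA01 with two-fold concentration steps and overnight incubation; MIC is lowest concentration visibly inhibiting growth versus drug-free control, in mg/L. Compounds tested as trifluoroacetate salts, in duplicate, lower value reported if within 2-fold; control organisms and reference compounds included.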"}, "[4]": {"test_system": "AB-3167, clinical isolate of Acinetobacter baumannii", "format": "cell-based", "outline": "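Broth dilution MIC per CLSI (M7-A8, M100-S20, M26-A for bactericidal), 2-fold dilution series, overnight incubation, visual read of lowest concentration inhibiting growth versus drug-free control. Duplicates run; lower value reported if within 2-fold, otherwise repeated. Compounds tested as trifluoroacetate salts; QC strains and reference compounds required in range.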"}, "[5]": {"test_system": "PA-1646, polymyxin-resistant clinical isolate of Pseudomonas aeruginosa", "format": "cell-based", "outline": "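Broth dilution MIC per CLSI with 2-fold concentration steps, read visually after overnight incubation as lowest concentration inhibiting growth; duplicates within 2-fold, lower value reported, with QC strains and reference compounds. Compounds tested as trifluoroacetate salts, polymyxin B as sulfate.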"}, "[6]": {"test_system": "EC-1, mouse virulent strain of Escherichia coli", "format": "cell-based", "conditions": "E. coli EC-1; overnight incubation, lower of duplicate values; trifluoroacetate salt (Example 1 and PMB sulfate)", "outline": "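Compounds were tested mostly as trifluoroacetate salts. Duplicate CLSI broth-dilution MICs were read visually after overnight incubation over 2-fold dilutions, with the lower of duplicates within 2-fold taken. QC organisms and reference drugs were included in each run.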"}, "[7]": {"assay": "Cytotoxicity assay (LDH release), hRPTEC", "format": "cell-based, human", "conditions": "human", "outline": "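hRPTEC grown 72 h in REGM, then exposed to compounds at 100, 67, 44, 30, 20 and 13 micromolar for 24 h at 37° C, 5% CO2. LDH released into supernatant measured; TC50 (micromolar) derived. Compounds tested as trifluoroacetate salts unless otherwise noted.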"}, "[8]": {"test_system": "PA-1646, polymyxin-resistant clinical isolate of Pseudomonas aeruginosa", "format": "cell-based", "outline": "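Broth dilution MIC and bactericidal (MBC) testing per CLSI methods (M7-A8, M100-S20, M26-A) against polymyxin-resistant clinical P. aeruginosa isolate PA-1646. Compounds tested as trifluoroacetate salts, one as sulfate salt; values in mg/L.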", "remark": "listed apart in the source"}, "[9]": {"conditions": "AB-1649, polymyxin-resistant clinical isolate of"}, "[10]": {"conditions": "PA-1646, polymyxin-resistant clinical isolate of"}}, "note": "Where two headings read alike, the source gives them in different places. Numbered stars: 1 amine (or outer) side, 2 acyl side, 3 side chain; on linkers, the order of the positions; unused ones are H or OH. Bridge positions count the residues as written; N and C are the ends. Square brackets hold non-standard residues; d marks the D form. Peptide text beside a SMILES is read from it. * marks the point of attachment. Benzoyl(4-OPh) = O=C(c1ccc(Oc2ccccc2)cc1)*; Benzoyl(4-Ph) = O=C(c1ccc(-c2ccccc2)cc1)*; X33 = N#Cc1ccc(-c2cc(C(=O)*)ccc2Cl)cc1; X26 = O=C(c1ccnc(-c2ccc(Cl)cc2)c1)*; X38 = O=S(=O)(c1cccc(-c2ccccc2)c1)*; X36 = c1ccc(-c2cccc(N*)c2)cc1; Dab = NCC[C@H](N)C(=O)O; Dap = NC[C@H](N)C(=O)O; CO = O=C([*:1])[*:2]"}
{"smiles": "CC(C)C[C@@H]1NC(=O)[C@@H](Cc2ccccc2)NC(=O)[C@H](CCN)NC(=O)[C@@H](NC(=O)[C@H](CN)NC(=O)[C@@H](NC(=O)[C@H](CCN)NC(=O)c2ccc(Cl)c(-c3ccc(C#N)cc3)c2)[C@@H](C)O)CCNC(=O)[C@H]([C@@H](C)O)NC(=O)[C@H](CCN)NC(=O)[C@H](CCN)NC1=O", "note": "[Example 39] (X33-[Dab]T[Dap][Dab][Dab][dF]L[Dab][Dab]T; lactam 4-C)", "values": [{"measurement": "AB-1649 MBC", "setting": "[1]; [9]", "result": 4, "unit": "µg/mL"}, {"measurement": "AB-1649 MIC", "setting": "[2]; [9]", "result": 4, "unit": "µg/mL"}, {"measurement": "PA01 MIC", "setting": "[3]; strain", "result": 1, "unit": "µg/mL"}, {"measurement": "AB-3167 MIC", "setting": "[4]; AB-3167, clinical isolate of", "result": 0.5, "unit": "µg/mL"}, {"measurement": "PA-1646 MIC", "setting": "[5]; [10]", "result": 1, "unit": "µg/mL"}, {"measurement": "EC-1 MIC", "setting": "[6]", "result": 0.5, "unit": "µg/mL"}, {"measurement": "CC50 at 24 h", "setting": "[7]", "result": 20, "unit": "µM"}, {"measurement": "PA-1646 MBC", "setting": "[8]; [10]", "result": 4, "unit": "µg/mL"}]}
{"smiles": "CC(C)C[C@@H]1NC(=O)[C@@H](Cc2ccccc2)NC(=O)[C@H](CCN)NC(=O)[C@@H](NC(=O)[C@H](CN)NC(=O)[C@@H](NC(=O)[C@H](CCN)NC(=O)Nc2cccc(-c3ccccc3)c2)[C@@H](C)O)CCNC(=O)[C@H]([C@@H](C)O)NC(=O)[C@H](CCN)NC(=O)[C@H](CCN)NC1=O", "note": "[Example 40] ({X36-CO}-[Dab]T[Dap][Dab][Dab][dF]L[Dab][Dab]T; lactam 4-C)", "values": [{"measurement": "AB-1649 MBC", "setting": "[1]; [9]", "result": 4, "unit": "µg/mL"}, {"measurement": "AB-1649 MIC", "setting": "[2]; [9]", "result": 4, "unit": "µg/mL"}, {"measurement": "PA01 MIC", "setting": "[3]; strain", "result": 0.5, "unit": "µg/mL"}, {"measurement": "AB-3167 MIC", "setting": "[4]; AB-3167, clinical isolate of", "result": 0.25, "unit": "µg/mL"}, {"measurement": "PA-1646 MIC", "setting": "[5]; [10]", "result": 1, "unit": "µg/mL"}, {"measurement": "EC-1 MIC", "setting": "[6]", "result": 0.25, "unit": "µg/mL"}, {"measurement": "CC50 at 24 h", "setting": "[7]", "result": 15, "unit": "µM"}, {"measurement": "PA-1646 MBC", "setting": "[8]; [10]", "result": 1, "unit": "µg/mL"}]}
{"smiles": "CC(C)C[C@@H]1NC(=O)[C@@H](Cc2ccccc2)NC(=O)[C@H](CCN)NC(=O)[C@@H](NC(=O)[C@H](CN)NC(=O)[C@@H](NC(=O)[C@H](CCN)NS(=O)(=O)c2cccc(-c3ccccc3)c2)[C@@H](C)O)CCNC(=O)[C@H]([C@@H](C)O)NC(=O)[C@H](CCN)NC(=O)[C@H](CCN)NC1=O", "note": "[Example 41] (X38-[Dab]T[Dap][Dab][Dab][dF]L[Dab][Dab]T; lactam 4-C)", "values": [{"measurement": "AB-1649 MBC", "setting": "[1]; [9]", "result": ">64", "unit": "µg/mL"}, {"measurement": "AB-1649 MIC", "setting": "[2]; [9]", "result": 64, "unit": "µg/mL"}, {"measurement": "PA01 MIC", "setting": "[3]; strain", "result": 0.25, "unit": "µg/mL"}, {"measurement": "AB-3167 MIC", "setting": "[4]; AB-3167, clinical isolate of", "result": 1, "unit": "µg/mL"}, {"measurement": "PA-1646 MIC", "setting": "[5]; [10]", "result": 2, "unit": "µg/mL"}, {"measurement": "EC-1 MIC", "setting": "[6]", "result": 0.25, "unit": "µg/mL"}, {"measurement": "CC50 at 24 h", "setting": "[7]", "result": 42, "unit": "µM"}, {"measurement": "PA-1646 MBC", "setting": "[8]; [10]", "result": 4, "unit": "µg/mL"}]}
{"smiles": "CC(C)C[C@@H]1NC(=O)[C@@H](Cc2ccccc2)NC(=O)[C@H](CCN)NC(=O)[C@@H](NC(=O)[C@H](CN)NC(=O)[C@@H](NC(=O)[C@H](CCN)NC(=O)c2ccc(Oc3ccccc3)cc2)[C@@H](C)O)CCNC(=O)[C@H]([C@@H](C)O)NC(=O)[C@H](CCN)NC(=O)[C@H](CCN)NC1=O", "note": "[Example 42] ({Benzoyl(4-OPh)}-[Dab]T[Dap][Dab][Dab][dF]L[Dab][Dab]T; lactam 4-C)", "values": [{"measurement": "AB-1649 MBC", "setting": "[1]; A. baumannii AB-1649, tested as trifluoroacetate salt (Example 1 and PMB as sulfate salt)", "result": 1, "unit": "µg/mL"}, {"measurement": "AB-1649 MIC", "setting": "[2]; A. baumannii AB-1649, overnight incubation, lower of duplicate values, trifluoroacetate salt (Example 1 and PMB sulfate)", "result": 1, "unit": "µg/mL"}, {"measurement": "PA01 MIC", "setting": "[3]; P. aeruginosa PA01, overnight incubation, lower of duplicate values, trifluoroacetate salt (Example 1 and PMB sulfate)", "result": 0.5, "unit": "µg/mL"}, {"measurement": "AB-3167 MIC", "setting": "[4]; A. baumannii AB-3167, overnight incubation, lower of duplicate values, trifluoroacetate salt (Example 1 and PMB sulfate)", "result": 0.25, "unit": "µg/mL"}, {"measurement": "PA-1646 MIC", "setting": "[5]; P. aeruginosa PA-1646, overnight incubation, lower of duplicate values, trifluoroacetate salt (Example 1 and PMB sulfate)", "result": 1, "unit": "µg/mL"}, {"measurement": "EC-1 MIC", "setting": "[6]", "result": 0.25, "unit": "µg/mL"}, {"measurement": "CC50 at 24 h", "setting": "[7]; Human Renal Proximal Tubule Epithelial cells (hRPTEC), hRPTEC, 24 hours treatment, LDH release, Toxic Concentration 50%, read-out: hRPTEC TC50", "result": 27, "unit": "µM"}, {"measurement": "PA-1646 MBC", "setting": "[8]; P. aeruginosa PA-1646, tested as trifluoroacetate salt (Example 1 and PMB as sulfate salt)", "result": 4, "unit": "µg/mL"}]}
{"smiles": "CC(C)C[C@@H]1NC(=O)[C@@H](Cc2ccccc2)NC(=O)[C@H](CCN)NC(=O)[C@@H](NC(=O)[C@H](CN)NC(=O)[C@@H](NC(=O)[C@H](CCN)NC(=O)c2ccnc(-c3ccc(Cl)cc3)c2)[C@@H](C)O)CCNC(=O)[C@H]([C@@H](C)O)NC(=O)[C@H](CCN)NC(=O)[C@H](CCN)NC1=O", "note": "[Example 44] (X26-[Dab]T[Dap][Dab][Dab][dF]L[Dab][Dab]T; lactam 4-C)", "values": [{"measurement": "AB-1649 MBC", "setting": "[1]; [9]", "result": 1, "unit": "µg/mL"}, {"measurement": "AB-1649 MIC", "setting": "[2]; [9]", "result": 1, "unit": "µg/mL"}, {"measurement": "PA01 MIC", "setting": "[3]; strain", "result": 0.5, "unit": "µg/mL"}, {"measurement": "AB-3167 MIC", "setting": "[4]; AB-3167, clinical isolate of", "result": 0.25, "unit": "µg/mL"}, {"measurement": "PA-1646 MIC", "setting": "[5]; [10]", "result": 1, "unit": "µg/mL"}, {"measurement": "EC-1 MIC", "setting": "[6]", "result": 0.25, "unit": "µg/mL"}, {"measurement": "CC50 at 24 h", "setting": "[7]", "result": 30, "unit": "µM"}, {"measurement": "PA-1646 MBC", "setting": "[8]; [10]", "result": 1, "unit": "µg/mL"}]}
{"smiles": "CC(C)C[C@@H]1NC(=O)[C@@H](Cc2ccccc2)NC(=O)[C@H](CCN)NC(=O)[C@@H](NC(=O)[C@H](CN)NC(=O)[C@@H](NC(=O)[C@H](CCN)NC(=O)c2ccc(-c3ccccc3)cc2)[C@@H](C)O)CCNC(=O)[C@H]([C@@H](C)O)NC(=O)[C@H](CCN)NC(=O)[C@H](CCN)NC1=O", "note": "[Example 45] ({Benzoyl(4-Ph)}-[Dab]T[Dap][Dab][Dab][dF]L[Dab][Dab]T; lactam 4-C)", "values": [{"measurement": "AB-1649 MBC", "setting": "[1]; [9]", "result": 1, "unit": "µg/mL"}, {"measurement": "AB-1649 MIC", "setting": "[2]; [9]", "result": 1, "unit": "µg/mL"}, {"measurement": "PA01 MIC", "setting": "[3]; strain", "result": 0.5, "unit": "µg/mL"}, {"measurement": "AB-3167 MIC", "setting": "[4]; AB-3167, clinical isolate of", "result": 0.25, "unit": "µg/mL"}, {"measurement": "PA-1646 MIC", "setting": "[5]; [10]", "result": 0.5, "unit": "µg/mL"}, {"measurement": "EC-1 MIC", "setting": "[6]", "result": 0.25, "unit": "µg/mL"}, {"measurement": "CC50 at 24 h", "setting": "[7]", "result": 28, "unit": "µM"}, {"measurement": "PA-1646 MBC", "setting": "[8]; [10]", "result": 1, "unit": "µg/mL"}]}
